The values below come from patent US20240041042A1, “1-(PYRIDYL)-5-AZINYLPYRAZOLE DERIVATIVES, AND THEIR USE FOR CONTROL OF UNDESIRED PLANT GROWTH” (Bayer Aktiengesellschaft, priority 2020, published 2024).

Where two headings read alike, the source gives them in different places.

Holding throughout (format): in vivo
Data set [1] concerns Lolium rigidum (LOLRI). Kind of data set: Pre-emergence herbicidal action against LOLRI. The settings on record: dosage 320 g/ha. In short, it runs like this:
(§1)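 Greenhouse pot trial: seeds sown, soil-covered, sprayed before emergence with compound in water (0.5% additive; 600 l/ha; ≤320 g/ha). Scoring visual, ~3 weeks, 0–100% scale vs untreated.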

Data set [2] deals with Alopecurus myosuroides (ALOMY). In words: Pre-emergence herbicidal action against ALOMY. As to conditions: 320 g/ha; scored visually after about 3 weeks; 100% = plants have died. In short, it runs like this: as §1
For data set [3], the system named is Zea mays (ZEAMX). As to conditions: crop plant compatibility, effect vs untreated controls. In outline:
(§2)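 Percent effect on the crop was judged by eye against untreated controls, where 0% means like control and 100% means dead plants. Plants had been sprayed post-emergence at the one-leaf stage and then kept under optimum greenhouse conditions for about 3 weeks.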

Data set [4] concerns Oryza sativa (ORYSA). As to conditions: crop plant compatibility, 80 g/ha, effect in comparison to untreated controls. In outline:
as §2

Data set [5] concerns Polygonum convolvulus (POLCO). In words: Pre-emergence herbicidal action against POLCO. In outline: as §1
In data set [6] the test system is Verconica persica (VERPE). Kind of data set: Post-emergence herbicidal action against VERPE. In short, it runs like this: (§3)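 Post-emergence greenhouse spray, one-leaf stage, 600 l/ha water plus 0.5% additive; WP or EC formulations; application rates 320 g/ha or lower. Visual % damage vs untreated controls at ~3 weeks.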
Data set [7] deals with Amaranthus retroflexus (AMARE). In words: Pre-emergence herbicidal action against AMARE. The settings on record: visual scoring after about 3 weeks vs untreated controls. In outline: as §1
For data set [8], the system named is Zea mays (ZEAMX). The settings on record: pre-emergence, 80 g/ha, crop plant compatibility, in comparison to untreated controls. In outline: (§4)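 Scoring: visual, % of untreated control, about 3 weeks after a pre-emergence application to the soil surface. Application used WP or EC formulations diluted in water with 0.5% additive at 600 l/ha; dosage levels are marked by suffixes a, b and c.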

Data set [9] has as its system Oryza sativa (ORYSA). The settings on record: pre-emergence, 80 g/ha, crop plant compatibility, in comparison to untreated controls. In short, it runs like this:
as §4

Another data set relates to Brassica napus (BRSNW). As to conditions: crop plant compatibility, in comparison to untreated controls. In short, it runs like this:
as §4

For data set [10], the system named is Setaria viridis (SETVI). Kind of data set: Post-emergence herbicidal action against SETVI. The settings on record: dosage 320 g/ha. In short, it runs like this: as §3
Data set [11] relates to Viola tricolor (VIOTR). In words: Pre-emergence herbicidal action against VIOTR. The settings on record: 320 g/ha, Viola tricolor. In outline: as §1
The subject of data set [12] is Abutilon theophrasti (ABUTH). In words: Post-emergence herbicidal action against ABUTH. The settings on record: 320 g/ha, visual rating about 3 weeks after treatment vs untreated controls (100% = plants have died, 0% = like control plants). In short, it runs like this:
as §3

The subject of data set [13] is Echinochloa crus-galli (ECHCG). In words: Post-emergence herbicidal action against ECHCG. In short, it runs like this:
as §3

Data set [14] relates to Pharbitis purpurea (PHBPU). Kind of data set: Pre-emergence herbicidal action against PHBPU. The settings on record: dosage 320 g/ha. In outline: as §1
The subject of data set [15] is Viola tricolor (VIOTR). Kind of data set: Post-emergence herbicidal action against VIOTR. In short, it runs like this:
as §3

Data set [16] relates to Alopecurus myosuroides (ALOMY). In words: Post-emergence herbicidal action against ALOMY. As to conditions: 320 g/ha, visual rating about 3 weeks after treatment vs untreated controls (100% = plants have died, 0% = like control plants). In short, it runs like this:
as §3

The test system of data set [17] is Lolium rigidum (LOLRI). Kind of data set: Post-emergence herbicidal action against LOLRI. As to conditions: dosage 320 g/ha. In short, it runs like this:
as §3

Data set [18] concerns Amaranthus retroflexus (AMARE). In words: Post-emergence herbicidal action against AMARE. In short, it runs like this: as §3
Data set [19] concerns Avena fatua (AVEFA). Kind of data set: Post-emergence herbicidal action against AVEFA. As to conditions: 320 g/ha, visual rating about 3 weeks after treatment. In outline: as §3
Data set [20] deals with Avena fatua (AVEFA). In words: Pre-emergence herbicidal action against AVEFA. As to conditions: 320 g/ha, visual scoring after about 3 weeks vs untreated controls. In outline:
as §1

In data set [21] the test system is Verconica persica (VERPE). In words: Pre-emergence herbicidal action against VERPE. As to conditions: dosage 320 g/ha. In short, it runs like this: as §1
Data set [22] relates to Polygonum convolvulus (POLCO). Kind of data set: Post-emergence herbicidal action against POLCO. In outline: as §3
Data set [23] relates to Pharbitis purpurea (PHBPU). Kind of data set: Post-emergence herbicidal action against PHBPU. As to conditions: dosage 320 g/ha. In outline: as §3
Data set [24] deals with Echinochloa crus-galli (ECHCG). Kind of data set: Pre-emergence herbicidal action against ECHCG. As to conditions: dosage 320 g/ha. In short, it runs like this: as §1
For data set [25], the system named is Triticum aestivum (TRZAS). The settings on record: crop plant compatibility, effect vs untreated controls. In outline: as §2
Data set [26] relates to Matricaria inodora (MATIN). In words: Pre-emergence herbicidal action against MATIN. As to conditions: dosage 320 g/ha. In short, it runs like this: as §1
The subject of data set [27] is Setaria viridis (SETVI). In words: Pre-emergence herbicidal action against SETVI. The settings on record: dosage 320 g/ha. In outline:
as §1

[28] abbreviates: 80 g/ha, visual rating about 3 weeks after treatment vs untreated controls (100% = plants have died, 0% = like control plants).
Setting [29] is: 320 g/ha, visual rating about 3 weeks after treatment.

On to `COCCOC(=O)COc1nn(-c2ncccc2C(F)(F)F)c(-c2ccc(F)nc2)c1Br` [Example I-378], for which the “Pre-emergence action against LOLRI in %” value in the data set on Lolium rigidum (LOLRI) [1] is 90%. For the same molecule, in [2], the “Pre-emergence action against ALOMY” value turned out to be 80%. In addition, in the data set with Zea mays (ZEAMX) [3] (80 g/ha), the “Post-emergence action against ZEAMX in %” value was found to be 10%. Also, the “Post-emergence action against ORYSA in %” value in the data set with Oryza sativa (ORYSA) [4] stood at 10%. For the same molecule, in data set [5] (dosage 320 g/ha), the “Pre-emergence action against POLCO in %” value was found to be 80%. Moreover, the “Post-emergence action against VERPE in %” value in [6] (320 g/ha, VERPE) came to 80%. Besides, the figures for the “Pre-emergence action against AMARE in %” value in data set [7] (80 g/ha) and in data set [7] (320 g/ha) were 80% and 90%, respectively. In the data set with Zea mays (ZEAMX) [8], the “Pre-emergence action against ZEAMX in %” value is on record as 0%. For the same molecule, the “Pre-emergence action against ORYSA in %” value in the data set on Oryza sativa (ORYSA) [9] was found to be 0%. In addition, in the data set on Brassica napus (BRSNW) (80 g/ha), the “Pre-emergence action against BRSNW in %” value stood at 0%. In addition, in the data set on Setaria viridis (SETVI) [10], the “Post-emergence action against SETVI in %” value amounted to 80%. Moreover, in the data set on Viola tricolor (VIOTR) [11], the “Pre-emergence action against VIOTR in %” value stood at 90%. In [12], the “Post-emergence action against ABUTH in %” value worked out at 80%. Besides, in [13] (dosage 320 g/ha), the “Post-emergence action against ECHCG in %” value was 80%.

Turning to `CCOC(=O)COc1nn(-c2ncccc2C(F)(F)F)c(-c2ccc(F)nc2)c1Br` [Example I-335], the “Pre-emergence action against LOLRI in %” value with Lolium rigidum (LOLRI) [1] is on record as 90%. Besides, the “Pre-emergence action against ALOMY” value in [2] is 80%. Besides, the “Pre-emergence action against PHBPU in %” value in data set [14] worked out at 80%. The entries for the “Post-emergence action against ZEAMX in %” value in the data set on Zea mays (ZEAMX) [3] (80 g/ha) and in the data set on Zea mays (ZEAMX) [3] (320 g/ha) were 0% and 20%, respectively. Also, the “Post-emergence action against ORYSA in %” value in the data set on Oryza sativa (ORYSA) [4] is listed as 0%. Also, in data set [5] (dosage 320 g/ha), the “Pre-emergence action against POLCO in %” value turned out to be 90%. The “Post-emergence action against VERPE in %” value was 90% in [6] (320 g/ha, VERPE) and 90% in data set [6] (dosage 80 g/ha). In addition, the “Pre-emergence action against AMARE in %” value in data set [7] (320 g/ha) is 90%. Moreover, the “Post-emergence action against VIOTR in %” value was 80% in the data set with Viola tricolor (VIOTR) [15] (80 g/ha) and 90% in the data set with Viola tricolor (VIOTR) [15] (320 g/ha). Further, the “Post-emergence action against ALOMY in %” value in data set [16] is reported as 100%. Moreover, the “Pre-emergence action against ZEAMX in %” value with Zea mays (ZEAMX) [8] turned out to be 20%. Further, in the data set with Oryza sativa (ORYSA) [9], the “Pre-emergence action against ORYSA in %” value was 0%. Besides, the “Pre-emergence action against BRSNW in %” value with Brassica napus (BRSNW) (80 g/ha) and in the data set on Brassica napus (BRSNW) (320 g/ha) was 0% each time. Besides, in the data set on Lolium rigidum (LOLRI) [17], the “Post-emergence action against LOLRI in %” value worked out at 90%. Moreover, the “Post-emergence action against SETVI in %” value with Setaria viridis (SETVI) [10] was found to be 90%. Moreover, the “Post-emergence action against AMARE in %” value in data set [18] (setting [28]) and in data set [18] (setting [29]) was 80% throughout. Further, the “Pre-emergence action against VIOTR in %” value with Viola tricolor (VIOTR) [11] worked out at 100%. Moreover, the “Post-emergence action against AVEFA in %” value in the data set on Avena fatua (AVEFA) [19] turned out to be 90%. In addition, the “Pre-emergence action against AVEFA in %” value in the data set with Avena fatua (AVEFA) [20] is listed as 80%. In addition, the “Pre-emergence action against VERPE in %” value in [21] was 80%. Also, the “Post-emergence action against POLCO in %” value in data set [22] (dosage 80 g/ha) and in [22] (dosage 320 g/ha) was 80% throughout. The “Post-emergence action against ECHCG in %” value in data set [13] (dosage 80 g/ha) is on record as 80%; in data set [13] (dosage 320 g/ha), 90%.

Turning to `Cc1cccc(-n2nc(OCC(=O)O)c(Cl)c2-c2ccc(F)nc2)n1` [Example I-351], the “Post-emergence action against PHBPU in %” value in [23] was found to be 80%. Also, the “Pre-emergence action against ECHCG in %” value in data set [24] is listed as 90%. Moreover, the “Post-emergence action against ZEAMX in %” value in the data set with Zea mays (ZEAMX) [3] (80 g/ha) was determined as 10%. Moreover, the “Post-emergence action against TRZAS in %” value came out at 0% in [25] (80 g/ha) and 10% in data set [25] (320 g/ha). In addition, in the data set on Oryza sativa (ORYSA) [4], the “Post-emergence action against ORYSA in %” value was 0%. The “Pre-emergence action against POLCO in %” value in data set [5] (dosage 80 g/ha) and in data set [5] (dosage 320 g/ha) was 80% each time. For the same molecule, the “Post-emergence action against VERPE in %” value in data set [6] (320 g/ha, VERPE) came out at 80%. Further, in [7] (320 g/ha), the “Pre-emergence action against AMARE in %” value turned out to be 80%. The “Pre-emergence action against ORYSA in %” value with Oryza sativa (ORYSA) [9] is 20%. For the same molecule, the “Pre-emergence action against BRSNW in %” value with Brassica napus (BRSNW) (80 g/ha) was determined as 20%. Further, the “Pre-emergence action against MATIN in %” value in [26] is given as 80%. The “Post-emergence action against LOLRI in %” value in the data set on Lolium rigidum (LOLRI) [17] was 80%. Moreover, in the data set on Setaria viridis (SETVI) [10], the “Post-emergence action against SETVI in %” value is recorded as 80%. The “Post-emergence action against AMARE in %” value in [18] (setting [28]) and in data set [18] (setting [29]) was 80% in each case. For the same molecule, in the data set on Setaria viridis (SETVI) [27], the “Pre-emergence action against SETVI in %” value stood at 100%. For the same molecule, in the data set on Avena fatua (AVEFA) [20], the “Pre-emergence action against AVEFA in %” value turned out to be 80%. Further, the “Pre-emergence action against VERPE in %” value in [21] turned out to be 80%. For the same molecule, the “Post-emergence action against POLCO in %” value in [22] (dosage 320 g/ha) came out at 80%. The “Post-emergence action against ECHCG in %” value in [13] (dosage 320 g/ha) is on record as 80%.
